Consider 3 compounds from patent US7759384B2, “Carvedilol phosphate salts and/or solvates thereof, corresponding compositions, and/or methods of treatment” (SmithKline Beecham (Cork) Limited, priority 2002, dated 2010).

The nature of data set [1]: aqueous solubility of carvedilol phosphate salts compared with free base and other salts. In kind it is physicochemical. Particulars: novel crystalline forms.
The conditions of data set [2]: cited from earlier work.

The structures appear in SMILES notation. Where two headings read alike, the source gives them in different places. Some results are limits rather than exact numbers.

As for `COc1ccccc1OCCNCC(O)COc1cccc2[nH]c3ccccc3c12.O=P(O)(O)O` (centres unmarked) [carvedilol dihydrogen phosphate], the “solubility compared to the free base of carvedilol” value in data set [1] is reported as “much higher solubility”.
In the case of `COc1ccccc1OCCNCC(O)COc1cccc2[nH]c3ccccc3c12.Cl` (centres unmarked) [hydrochloride salt of carvedilol], the “solubility in acidic medium” value in data set [2] (salt generated in situ in acidic medium, which simulates gastric fluid) is “less soluble”.
`COc1ccccc1OCCNCC(O)COc1cccc2[nH]c3ccccc3c12` (racemic) [Carvedilol]: the solubility in data set [2] (neutral or alkaline media, above a pH of 9.0) is below 1 µg/mL. The saturation solubility entry in data set [2] (pH=5, room temperature) is listed as “about 100 μg/mL”; in data set [2] (pH=7, room temperature) it was “about 23 μg/mL”.

Usually solubility stands for how much of the substance goes into solution per volume.
